# According to US20190350907A1, “METHODS AND PHARMACEUTICAL COMPOSITIONS FOR REDUCING CD95- MEDIATED CELL MOTILITY” (INSERM (INSTITUT NATIONAL DE LA SANTÉ ET DE LA RECHERCHE …, priority 2017, published 2019):
# Read-outs that look alike come from different tables or passages of the source.
# T1: CD95/PLCγ1 interaction (Homo sapiens, UniProt P19174)
# T1 construct: The PLCγ1-SH3 domain (aa 790-851) (C); expressed in transfected cells; host or cells: HEK293T
# T1 sequence (P19174 790-851): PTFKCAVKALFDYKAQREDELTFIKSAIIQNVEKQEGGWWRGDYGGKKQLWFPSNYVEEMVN
# T2: PLCγ1-SH3 domain (aa 790-851) fused to F1 fragment of Renilla luciferase, P19174
# T2 chain: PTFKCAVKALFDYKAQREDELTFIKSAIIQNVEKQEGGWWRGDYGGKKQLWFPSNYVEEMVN
# What was measured:
# activated PBLs = test: CD95-mediated cell migration / endothelial transmigration of activated PBLs (Boyden chamber); type: cell-based, human; conditions: result in words
# Description: FIG. 3. Drugs inhibit CD95-mediated Ca′ response and cell migration. A. Activated PBLs were loaded with FuraPE3-AM (1 μM) and pre-treated for 1 h with non-toxic concentrations of indicated compounds. T-cells were then stimulated with cl-CD95L (100 ng/mL; arrow). Ratio values (R) were normalized to pre-stimulated values (R0) to yield R/R0 values. Data represent means±the SD. B. Left panel: using Boyden chamber assay, cell migration of parental H9 cells and their counterpart lacking CD95 (CD95-KO) was assessed. Right panel: activated PBLs were pre-incubated in the presence or absence of the indicated drugs for 1 hour using non-toxic concentration and the CD95-mediated cell migration was assessed by Boyden chambers. C. Th17 cells were sorted from blood of healthy donors (peripheral blood mononuclear cell). FACS analyses showing the efficiency of Th17 (CCR6^+ CXCR3^−) cell sorting from healthy donors PBMCs. D. Th17 cells were pre-incubated in the presence or absence of the indicated drugs for 1 hour using non-toxic concentration and cell migration was assessed by Boyden chambers. After membrane hydration of Boyden chambers (Millipore, Molsheim, France) containing 8 μm pore membranes, 10^5 cells were added to the top chamber. The bottom chamber was filled with low serum (1%)-containing medium in the presence or absence of cl-CD95L (100 ng/ml). Cells were incubated for 24 h. To quantify invasion, cells were fixed with methanol and stained with Giemsa. Stained cells were then removed from the top-side of the membrane using a cotton-tipped swab and five representative pictures for each insert were taken of the invading cells from the reverse side. For each experiment, invading cells were lysed and absorbance at 560 nm was measured. Membranes (3 μm pore size) of a Boyden chamber were hydrated in sterile D-PBS (Millipore, Molsheim, France). Thereafter, activated T-lymphocytes (10^6) were added to the top chamber on a confluent monolayer of HUVEC in a low serum (1%)-containing medium. The bottom chamber was filled with low serum (1%)-containing medium in presence or absence of 100 ng/ml of cl-CD95L. In experiments using human sera, 500 μl of serum from either healthy donors or SLE patients was added to the lower chamber. Cells were cultured for 24 h at 37° C. in a 5% CO2, humidified incubator. Transmigrated cells were counted in the lower reservoir by flow cytometry using a standard of 2.5×10^4 fluorescent beads (Flow-count, Beckman Coulter).
# CD95/PLCγ1 interaction = biological target: T1, CD95/PLCγ1 interaction; test: Renilla luciferase protein-fragment complementation assay (PCA), CD95-CID/PLCγ1-SH3; type: cell-based; conditions: for effect on interaction of CD95 with PLCγ1: result in words
# Description: FIG. 1. […] A. Schematic representation of the protein-fragment complementation assay used with CD95-CID or -DD fused to F2 and PLCγ1-SH3 or FADD-DD fused to F1 to identify inhibitors from the Prestwick library. The Renilla luciferase enzyme was divided into amino-terminal and carboxy-terminal fragments (yellow domains) and fused to the indicated domains. B. Compounds from the Prestwick library were tested against CD95/PLCγ1 or CD95/FADD PCA. […] Inhibition of CD95/FADD interaction is also assessed.
# Light emission indicates refolding of the luciferase and reconstitution of enzyme activity through protein/protein interactions. […] Data represent means±SD of three independent experiments. […] Then, the indicated peptides fused with or without the cell-penetrating domain TAT were incubated at the indicated concentrations for 4 hrs and luminescence was assessed. Data represent means±SD of three independent experiments. […].
# HEK293T cells were electroporated with 5 μg of DNA using BTM-830 electroporation generator (BTX Instrument Division, Harvard Apparatus) with 10 μg of DNA. Transfected cells were cultured for 24 hrs prior to protein complementation assay analyses as previously described (17). Briefly, transfected cells (10^6) were washed, resuspended in 100 μl PBS and deposited in OptiPlate-96 (PerkinElmer, Waltham, Mass., USA). Coelenterazine-h (5 μM, Sigma) was injected to each well and renilla luciferase activity was monitored for the first 10 seconds using Infinite200Pro (Tecan, Männedorf, Switzerland).
# A peptide consisting of the cell-penetrating domain of TAT fused to CID (TAT-CID) binds the SH3 domain of PLCγ1 and thereby, prevents PLCγ1/CD95 interaction and the subsequent induction of the Ca^2+ response (16). […] Briefly, the Renilla luciferase enzyme was divided into two fragments (F1 and F2 fragments). […] Interaction of CD95 with PLCγ1 or FADD allows the reconstitution of RLuc and subsequent light emission (FIG. 1A). The chemical Prestwick library was screened against these PCAs (FIG. 1B). […] These molecules are designated CID inhibitors or CIDINH.
# [1] = test system: CD95-mediated Ca2+ signaling pathway in Th17 cells; test: CD95-mediated Ca2+ response in Th17 cells; type: cell-based, human; conditions: drugs 1 μM for 1 h, s-CD95L 100 ng/mL, Fluo2 LR-AM
# Description: A. Activated PBLs were loaded with FuraPE3-AM (1 μM) and pre-treated for 1 h with non-toxic concentrations of indicated compounds. T-cells were then stimulated with thapsigargin (1 μM; arrow). Ratio values (R) were normalized to pre-stimulated values (R0) to yield R/R0 values. Data represent means±the SD. B. Th17 cells were sorted from healthy donors and loaded with FuraPE3-AM (1 μM). Th17 cells were pre-treated for 1 h with non-toxic concentrations of ritonavir or diflunisal (1 μM). T-cells were then stimulated with cl-CD95L (100 ng/mL; arrow). Ratio values (R) were normalized to pre-stimulated values (R0) to yield R/R0 values. Data represent means±the SD.
# Human PBLs were sorted using flow cytometry cell sorting to isolate Th17 (A) according to their phenotype (CD3+CD4+CXCR5−CCR6+CXCR3−CD45RA−) and Tfh (B) (CD4+CXCR5+ICOS+PD−1+CD45RA−). Cells were pre-incubated with Indicated drugs (1 μM) for 1 h and then stimulated with 100 ng/mL of s-CD95L. [Ca2+]CYT was assessed in Fluo2 LR-AM (3 μM)-loaded cells. Data represent means±the SD of 3 independent experiments.
# Peripheral blood mononuclear cells (PBMC) were isolated from buffy-coat by density gradient using lymphocyte separation medium (Eurobio, Les Ulis, France). PBMCs were then subjected to selection using a cocktail of antibody-coated magnetic beads: CCR6^+ CXCR3^−CD4^+ cells (Th17 cells) were sorted with Human Th17 Enrichment kit (STEMCELL Technologies, Grenoble, France). Cell sorting efficiency was evaluated by FACS.
# T-cells were loaded with Fura-PE3-AM (1 μM) at room temperature for 30 min in Hank's Balanced Salt Solution (HBSS). After washing, the cells were incubated for 15 min in the absence of Fura-PE3-AM to complete de-esterification of the dye. Cells were placed in a temperature controlled chamber (37° C.) of an inverted epifluorescence microscope (Olympus IX70) equipped with an x40 UApo/340-1.15 W water-immersion objective (Olympus), and fluorescence micrograph images were captured at 510 nm and 12-bit resolution by a fast-scan camera (CoolSNAP fx Monochrome, Photometrics). To minimize UV light exposure, a 4×4 binning function was used. Fura-PE3 was alternately excited at 340 and 380 nm, and the ratios of the resulting images (emission filter at 520 nm) were produced at constant intervals (10 seconds). The Fura-PE3 ratio (Fratio 340/380) images were analyzed offline with Universal Imaging software, including Metafluor and Metamorph. Fratio reflects the intracellular Ca^2+ concentration changes. Each experiment was repeated at least 3 times, and the average of more than 20 single-cell traces per experiment was analyzed.
# [2] = test system: CD95-mediated Ca2+ signaling pathway in Tfh cells; test: CD95-mediated Ca2+ response in Tfh cells; type: cell-based, human; conditions: drugs 1 μM for 1 h, s-CD95L 100 ng/mL, Fluo2 LR-AM
# [3] = biological target: T2, PLCγ1-SH3 domain (aa 790-851) fused to …
# [4] = biological target: T2, PLCγ1-SH3 domain (aa 790-851) fused to …; test: Renilla luciferase protein-fragment complementation assay in non-permeabilized HEK cells (CID-CD95-F2 / PLCγ1-SH3-F1), peptide 4 h; displaces CID-CD95
Molecule,effect on endothelial transmigration of PBLs (activated PBLs),effect on interaction of CD95 with PLCγ1 (CD95/PLCγ1 interaction),effect on CD95-mediated Ca2+ signaling pathway in Th17 cells [1],effect on CD95-mediated Ca2+ signaling pathway in Tfh cells [2],further results
"COc1ccc(-c2cc(=S)ss2)cc1 [anethole, 5-(4-methoxyphenyl)dithiole-3-thione]",inhibited,efficiently prevented,,,
COC(=O)N[C@H](C(=O)N[C@@H](Cc1ccccc1)[C@@H](O)CN(Cc1ccc(-c2ccccn2)cc1)NC(=O)[C@@H](NC(=O)OC)C(C)(C)C)C(C)(C)C [atazanavir],,,efficiently abrogated,efficiently abrogated,
CC(C)CN(C[C@@H](O)[C@H](Cc1ccccc1)NC(=O)O[C@H]1CO[C@H]2OCC[C@H]21)S(=O)(=O)c1ccc(N)cc1 [darunavir],,,efficiently abrogated,efficiently abrogated,
"COc1cccc2c1C(=O)c1c(O)c3c(c(O)c1C2=O)C[C@@](O)(C(C)=O)C[C@@H]3O[C@H]1C[C@H](N)[C@H](O)[C@H](C)O1 [daunorubicin, (7S,9S)-9-acetyl-7-[(2R,4S,5S,6S)-4-amino-5-hydroxy-6-methyloxan-2-yl]oxy-6,9,11-trihydroxy-4-methoxy-8,10-dihydro-7H-tetracene-5,12-dione]",inhibited,efficiently prevented,,,
Cc1cccc(C)c1OCC(=O)N[C@@H](Cc1ccccc1)[C@@H](O)C[C@H](Cc1ccccc1)NC(=O)[C@H](C(C)C)N1CCCNC1=O [lopinavir],,,efficiently abrogated,efficiently abrogated,
"CN(CCOc1ccc(CC2SC(=O)NC2=O)cc1)c1ccccn1 (stereo not shown) [rosiglitazone, 5-[[4-[2-[methyl(pyridin-2-yl)amino]ethoxy]phenyl]methyl]-1,3-thiazolidine-2,4-dione]",inhibited,efficiently prevented,,,
"TAT-minCID: heptapeptide minCID (TCRKHRK, SEQ ID NO:1) fused with the cell-penetrating domain TAT (not fully specified; chains of the parent or of the whole protein)",,,,,"IC50 (CD95/PLCγ1 interaction; PCA in HEK cells, peptides incubated for 4 hours, read-out: IC50, disruption of CD95/PLCγ1 interaction by peptides): 11.5 µM"
"TCRKHRK (modifications not checked) [TAT-minCID (cell-penetrating domain TAT fused to minCID, TCRKHRK)]",,,,,IC50 [3]: 11.5 µM
"TCRKHRK (modifications not checked) [minCID (minimal CID, amino acids 182 to 188 of CD95, TCRKHRK)]",,,,,IC50 [4]: 35.5 µM
KRKEVQKTCRKHRKENQGSHESPTLNPETVAINLSD (modifications not checked),,,,,IC50 [3]: 10.8 µM
